These results are taken from patent publication US11753395B2 (Kinnate Biopharma Inc., priority 2021, dated 2023).

Bounds are passed on as bounds.

In test [1] the target is T1, MET (Homo sapiens, UniProt P08581).
T1 construct: purchased Carna Biosciences 08-151
Kind of test: MET Mobility Shift Assay. Conditions: biochemical assay IC50; 100 μM ATP, 60 minute kinase reaction. How it is done: (§1) Small molecule inhibition of MET kinase activity was evaluated using a fluorescence-based microfluidic mobility shift assay. MET catalyzes the production of ADP from ATP during phosphoryl transfer to the substrate peptide, FLPeptide30 (5-FAM-KKKKEEIYFFF-CONH2) (Perkin Elmer, 760430). MET enzme (Carna Biosciences, 08-151) at 0.625 nM was prepared with 10 mM MgCl2 and 1.5 μM substrate peptide in a buffer containing 50 mM HEPES, 1 mM EGTA, 0.01% Brij-35, 0.05% BSA, and 2 mM DTT and pre-incubated at room temperature for 30 min prior to the start of the reaction. 100 μM ATP was added to start the reaction. The mobility shift assay electrophoretically separates the fluorescently labeled peptides (substrate and phosphorylated product) following the 60 minute kinase reaction. The reaction was terminated by addition of 0.5 M EDTA. Both substrate and product were measured and the ratio of these values used to generate % conversion of substrate to product by the LabChip EZ reader (Perkin Elmer). ICso values were calculated using the inhibition of conversion ratio using Dotmatics Knowledge Solutions Studies curve fitting environment (Dotmatics, Bishops Stortford, UK, CM23) and are presented in Table 2.

For test [2], the target named is T2, MET D1228N (Homo sapiens, UniProt P08581, D1228N).
T2 construct: purchased Signalchem M52-12IG
Put plainly: MET D1228N Mobility Shift Assay. Conditions: biochemical assay IC50; 100 μM ATP, 60 minute kinase reaction. How it is done:
as §1, with “MET D1228N” for “MET”, “a fluorescence -based” for “a fluorescence-based”, “FLPeptide30 (5-FAM-KKKKEEIYFFF -CONH2)” for “FLPeptide30 (5-FAM-KKKKEEIYFFF-CONH2)”, “MET D1228N enzyme (Signalchem, M52-12IG)” for “MET enzme (Carna Biosciences, 08-151)”, “at 0.313” for “at 0.625”

For test [3], the target named is T3, Ba/F3-TPR-MET cells (Homo sapiens, UniProt P08581).
T3 construct: fused on or other part: P12270 (Nucleoprotein TPR)
Put plainly: CellTiter-Glo Cell Viability Assay, Ba/F3-TPR-MET. Format: cell-based. To be noted: 72 hours. How it is done: (§2) Ba/F3-TPR-MET and Ba/F3-TPR-MET-D1228N cells were seeded at 3000 cells per well in a 96 well plate in 90 μL growth media and allowed to incubate overnight at 37° C. with 5% CO2. The following day, compounds were serially diluted from a 10 mM top dose for a 9-point 3-fold dilution curve in DMSO. Following a 100-fold dilution in growth media, a further 10-fold dilution was made into the cell plate for a final volume of 100 μL and 0.1% DMSO. Compounds and cells were incubated together for 72 hours at 37° C. with 5% CO2. The CellTiter-Glo® 2.0 Assay determines the number of viable cells in culture by quantifying ATP, which indicates the presence of metabolically active cells. Luminescence readout is directly proportional to the number of viable cells in culture. CellTiter-Glo reagent (Promega, G9243) and cell plates were allowed to equilibrate to room temperature for at least 15 min, then 100 μL of CellTiter-Glo was added to each well for a 1:1 ratio of reagent to media. Samples were placed on a shaker for 2 min prior to a 30 min incubation at room temperature protected from light. Luminescence was read on a Perkin Elmer Envision plate reader 2105 and used to calculate ICso values within the Dotmatics Knowledge Solutions Studies curve fitting environment (Dotmatics, Bishops Stortford, UK, CM23) and are presented in Table 2.
(In general: In ATP-based viability assays light output follows the ATP content of the culture.)

Test [4] addresses T4, Ba/F3-TPR-MET-D1228N cells (Homo sapiens, UniProt P08581, D1228N, cells depend on it).
T4 construct: fused on or other part: P12270 (Nucleoprotein TPR)
Kind of test: CellTiter-Glo Cell Viability Assay, Ba/F3-TPR-MET-D1228N. Format: cell-based. Conditions: 72 hours. On the procedure: as §2

As usually defined, the IC50 is the concentration at which inhibition is half-maximal. What is called EC50 is the concentration needed to bring the measured effect to its halfway point. In the case of `CNCCOc1cc2nccc(Oc3c(F)cc(NC(=O)c4cnccc4OC4CC4)c(F)c3F)c2cc1OC` [Example 93, 4-cyclopropoxy-N-[2,3,5-trifluoro-4-({6-methoxy-7-[2-(methylamino)ethoxy]quinolin-4-yl}oxy)phenyl]pyridine-3-carboxamide], the IC50 in test [1] and in test [2] was no more than 100 nM in each case. For the same compound, the EC50 in test [3] and in test [4] was no more than 100 nM throughout.

`C[C@@H](O)COc1ccc2c(Oc3c(F)cc(NC(=O)c4cnccc4OC4CC4)cc3F)ccnc2c1` [Example 101, 4-cyclopropoxy-N-[3,5-difluoro-4-({7-[(2R)-2-hydroxypropoxy]quinolin-4-yl}oxy)phenyl]pyridine-3-carboxamide]: the IC50 in test [1] and in test [2] was no more than 100 nM each time. Moreover, the EC50 in test [3] and in test [4] was 100 to 1000 nM each time.

For `COc1cc2nccc(Oc3c(F)cc(NC(=O)c4cnccc4OC)cc3F)c2cc1OC[C@H](C)O` [Example 123, (S)-N-(3,5-difluoro-4-{[6-(2-hydroxypropoxy)-7-methoxyquinolin-4-yl]oxy}phenyl)-4-methoxypyridine-3-carboxamide], the half-inhibitory concentration (IC50) in test [1] and in test [2] was no more than 100 nM in each case. For the same compound, the EC50 in test [3] and in test [4] was no more than 100 nM in each case.

`COc1cc2c(Oc3c(F)cc(NC(=O)c4ccccc4F)cc3F)ccnc2cc1OCCO` [Example 134, N-(3,5-difluoro-4-((7-(2-hydroxyethoxy)-6-methoxyquinolin-4-yl)oxy)phenyl)-2-fluorobenzamide]: the IC50 in test [1] and in test [2] was no more than 100 nM each time. The half-maximal effective concentration (EC50) in test [3] and in test [4] was no more than 100 nM each time.

In the case of “(R)-N-(4-((7-(2-aminopropoxy)quinolin-4-yl)oxy)-3,5-difluorophenyl)-4-cyclopropoxypyridine-3-carboxamide [Example 13]”, the IC50 in test [1] and in test [2] was no more than 100 nM in each case. Further, the EC50 in test [3] is 100 to 1000 nM; in test [4], no more than 100 nM.

Regarding `CNCCOc1cc2nccc(Oc3c(F)cc(NC(=O)c4cnccc4OCC(C)(C)O)cc3F)c2cc1OC` [Example 66, N-(3,5-difluoro-4-((6-methoxy-7-(2-(methylamino)ethoxy)quinolin-4-yl)oxy)phenyl)-4-(2-hydroxy-2-methylpropoxy)pyridine-3-carboxamide], the IC50 in test [1] and in test [2] was no more than 100 nM each time. The EC50 in test [3] and in test [4] was 100 to 1000 nM throughout.

As for `COc1cc2nccc(Oc3c(F)cc(NC(=O)c4c(OC5CC5)ccnc4F)cc3F)c2nc1OC` [Example 144, 4-cyclopropoxy-N-(4-((6,7-dimethoxy-1,5-naphthyridin-4-yl)oxy)-3,5-difluorophenyl)-2-fluoropyridine-3-carboxamide], the half-inhibitory concentration (IC50) in test [1] and in test [2] was no more than 100 nM in each case. The EC50 in test [3] and in test [4] was no more than 100 nM each time.

Regarding `COc1cc2c(Oc3c(F)cc(NC(=O)c4cnccc4OC)cc3F)ccnc2cc1OCCN1CCOCC1` [Example 29, N-[3,5-difluoro-4-({6-methoxy-7-[2-(morpholin-4-yl)ethoxy]quinolin-4-yl}oxy)phenyl]-4-methoxypyridine-3-carboxamide], the half-inhibitory concentration (IC50) in test [1] and in test [2] was no more than 100 nM throughout. In addition, the 50% effective concentration (EC50) in test [3] and in test [4] was no more than 100 nM in each case.

As to `COc1ccc2c(Oc3c(F)cc(NC(=O)c4cnccc4OC4CC4)cc3F)ccnc2c1` [Example 90, 4-cyclopropoxy-N-{3,5-difluoro-4-[(7-methoxyquinolin-4-yl)oxy]phenyl}pyridine-3-carboxamide], the IC50 in test [1] and in test [2] was no more than 100 nM throughout. The 50% effective concentration (EC50) in test [3] is 100 to 1000 nM; in test [4], no more than 100 nM.

On to `CNCCOc1cc2nccc(Oc3ccc(NC(=O)c4c(OC)ccnc4F)c(F)c3F)c2cc1OC` [Example 15, N-(2,3-difluoro-4-((6-methoxy-7-(2-(methylamino)ethoxy)quinolin-4-yl)oxy)phenyl)-2-fluoro-4-methoxypyridine-3-carboxamide], for which the IC50 in test [1] and in test [2] was no more than 100 nM in each case. Moreover, the EC50 in test [3] and in test [4] was 100 to 1000 nM each time.

As to `CNCCOc1cc2nccc(Oc3c(F)cc(NC(=O)c4cc(F)c(F)cc4OC)cc3F)c2cc1OC` [Example 2, N-(3,5-difluoro-4-((6-methoxy-7-(2-(methylamino)ethoxy)quinolin-4-yl)oxy)phenyl)-4,5-difluoro-2-methoxybenzamide], the IC50 in test [1] and in test [2] was no more than 100 nM in each case. The EC50 is 1000 to 10000 nM in test [3] and 100 to 1000 nM in test [4].

As for `COc1cc2nccc(Oc3c(F)cc(NC(=O)c4cnccc4OC)cc3F)c2cc1OC1(CO)CC1` [Example 132, N-(3,5-difluoro-4-((6-(1-(hydroxymethyl)cyclopropoxy)-7-methoxyquinolin-4-yl)oxy)phenyl)-4-methoxynicotinamide], the 50% inhibitory concentration (IC50) in test [1] and in test [2] was no more than 100 nM in each case. Also, the EC50 in test [3] and in test [4] was no more than 100 nM each time.

For `CNCCOc1cc2nccc(Oc3c(F)cc(NC(=O)c4cnccc4OC4COC4)cc3F)c2cc1OC` [Example 68, N-[3,5-difluoro-4-({6-methoxy-7-[2-(methylamino)ethoxy]quinolin-4-yl}oxy)phenyl]-4-(oxetan-3-yloxy)pyridine-3-carboxamide], the IC50 in test [1] and in test [2] was no more than 100 nM in each case. Moreover, the figures for the EC50 in test [3] and in test [4] were 100 to 1000 nM and no more than 100 nM, respectively.

`CNCCOc1cc2nccc(Oc3ccc(NC(=O)c4cnccc4OC(F)F)c(F)c3F)c2cc1OC` [Example 48, N-[2,3-difluoro-4-({6-methoxy-7-[2-(methylamino)ethoxy]quinolin-4-yl}oxy)phenyl]-4-(difluoromethoxy)pyridine-3-carboxamide]: the IC50 in test [1] and in test [2] was no more than 100 nM in each case.

In the case of `CCOc1ccncc1C(=O)Nc1cc(F)c(Oc2ccnc3cc(OCCNC)ccc23)c(F)c1` [Example 11, N-(3,5-difluoro-4-((7-(2-(methylamino)ethoxy)quinolin-4-yl)oxy)phenyl)-4-ethoxypyridine-3-carboxamide], the IC50 in test [1] and in test [2] was no more than 100 nM each time.

As to `CNCCOc1cc2nccc(Oc3cc(F)c(NC(=O)c4cnc(Cl)cc4OC)cc3F)c2cc1OC` [Example 26, 6-chloro-N-[2,5-difluoro-4-({6-methoxy-7-[2-(methylamino)ethoxy]quinolin-4-yl}oxy)phenyl]-4-methoxypyridine-3-carboxamide], the IC50 in test [1] and in test [2] was no more than 100 nM in each case.

`CNCCOc1cc2nccc(Oc3ccc(NC(=O)c4cnc(N)cc4OC)c(F)c3F)c2cc1OC` [Example 33, 6-amino-N-[2,3-difluoro-4-({6-methoxy-7-[2-(methylamino)ethoxy]quinolin-4-yl}oxy)phenyl]-4-methoxypyridine-3-carboxamide]: the IC50 in test [1] and in test [2] was no more than 100 nM throughout.

Take `CNCCOc1cc2nccc(Oc3ccc(NC(=O)c4cnccc4OC4CC4)c(F)c3F)c2cc1OC` [Example 83, 4-cyclopropoxy-N-[2,3-difluoro-4-({6-methoxy-7-[2-(methylamino)ethoxy]quinolin-4-yl}oxy)phenyl]pyridine-3-carboxamide]: the IC50 in test [1] and in test [2] was no more than 100 nM in each case.
